# Reference: publication PMC6723440 (Toxins, 2019)
# Like-named read-outs stand apart in the source and are kept apart here.
# Columns and labels:
# [1] = human; for percentage of metabolized parent toxin in phase I reactions: microsomes, 1 h
# [2] = human, pH 7.4
# [3] = in vivo; cited from earlier work
# [4] = human, pH 7.4; remark: listed apart in the source
# [5] = human; cited from earlier work
smiles,measurement,setting,value
"CC1=C[C@H]2O[C@@H]3[C@H](O)C[C@](C)([C@@]2(CO)[C@H](O)C1=O)[C@]31CO1 [DON, deoxynivalenol]",converted into DNIV,[1]; pH 7.4,less than 1%
same,LC-MS Library: metabolites generated,[2],"Phase I metabolites: NIV, DOM-1 and its two isomers, Glucuronides: 15-Gluc-DON, 3-Gluc-DON"
same,predominant species in urine,[3],27%
same,total urinary DON present as free DON,[3],27.4%
same,total urinary deoxynivalenol (DON) composed of its glucuronides (15-Gluc-DON and 3-Gluc-DON),[3],approximately 72.6%
"CC(=O)OC[C@]12C[C@H](OC(=O)CC(C)C)C(C)=C[C@H]1O[C@@H]1[C@H](O)[C@@H](O)[C@@]2(C)[C@]12CO2 [HT-2, HT-2 toxin]",LC-MS Library: metabolites generated,[2],"Phase I metabolites: 4-de-Ac-NEO and its isomer, 3′-OH-HT-2, 4′-OH-HT-2 and its isomer Three OH-T-2 metabolites at 7 or 10 or 16-OH-HT-2 Two unknown metabolites Glucuronides: Gluc-3-HT-2"
"CC1=C[C@H]2O[C@@H]3[C@H](O)[C@@H](O)[C@](C)([C@@]2(CO)[C@H](O)C1=O)[C@]31CO1 [NIV, nivalenol]",converted into DNIV,[1]; pH 7.4,5%
same,glucuronidation,[4],< 1%
"C[C@H]1CCCC(=O)CCCCCc2cc(O)cc(O)c2C(=O)O1 [ZAN, zearalanone]",percentage of metabolized parent toxin in phase I reactions,[1]; pH 7.4,66%
same,"Number of Metabolites (n): Desaturation oxidation, −(H2) +(O2)",[1]; pH 7.4,2
same,"Number of Metabolites (n): Desaturation, oxidation, −(H2) +(O)",[1]; pH 7.4,1
same,"Number of Metabolites (n): Desaturation, oxidation, −(H4) +(O)",[1]; pH 7.4,0
same,Number of Metabolites (n): Oxidation +(O),[1]; pH 7.4,5(23%)
same,"Number of Metabolites (n): Oxidation, +(O2)",[1]; pH 7.4,6(27%)
same,"Number of Metabolites (n): Oxidation, −(H4) +(O2)",[1]; pH 7.4,0
same,share of Oxidation +(O) metabolites in ∑ n,[1]; pH 7.4,5(23%)
same,"share of Oxidation, +(O2) metabolites in ∑ n",[1]; pH 7.4,6(27%)
same,"share of Reduction, oxidation, +(H2) +(O) metabolites in ∑ n",[1]; pH 7.4,8(36%)
same,"∑ n, total number of oxidized metabolites",[1]; pH 7.4,22
same,Total Number of Glucuronides,[4],24
same,converted into glucoronides,[4],93%
same,glucuronides of oxidized metabolites and double glucuronides (minor products),[4],19%
same,glucuronides of parent toxins at position C-14,[4],73%
same,"share of species, Figure 7 pie",[4],7%
same,sum of parent glucuronides,[4],74%
same,LC-MS Library: metabolites generated,[2],"Phase I metabolites: (-(H2) +(O))-ZAN, (+(O))-ZAN, (+(H2)+ (O))-ZAN, (+(O2))-ZAN, (-(H2) +(O2))-ZAN Glucuronides: Gluc-16-ZAN, Gluc-14-ZAN, Gluc-(+O)- ZAN, 2xGluc- ZAN, Gluc-(+(H2)+(O))-ZAN, 2 × Gluc-(+O)-ZAN, 2 × Gluc-(+(H2)+(O))-ZAN"
"C[C@H]1CCC[C@H](O)CCCCCc2cc(O)cc(O)c2C(=O)O1 [α-ZAL, 7-α-hydroxy-zearalanol]",percentage of metabolized parent toxin in phase I reactions,[1],29%
"CC(=O)O[C@@H]1C[C@]2(C)[C@@]3(CO)[C@H](O)C(=O)C(C)=C[C@H]3O[C@H]1[C@@]21CO1 [3-AcDON, 3-acetyldeoxynivalenol]",converted into DON,[1]; pH 7.4,50%
same,LC-MS Library: metabolites generated,[2],Phase I metabolites: DON Glucuronides: Gluc-3-AcDON
same,metabolized to DON,[5],78%
"CC(=O)OC[C@]12[C@H](O)C(=O)C(C)=C[C@H]1O[C@@H]1[C@H](O)C[C@@]2(C)[C@]12CO2 [15-AcDON, 15-acetyldeoxynivalenol]",converted into DON,[1]; pH 7.4,1%
same,LC-MS Library: metabolites generated,[2],Phase I metabolites: DON Glucuronides: Gluc-15-AcDON
"C[C@H]1CCC[C@@H](O)CCCCCc2cc(O)cc(O)c2C(=O)O1 [β-ZAL, 7-β-hydroxy-zearalanol]",percentage of metabolized parent toxin in phase I reactions,[1],23%
CC(=O)OCC12CC(OC(=O)CC(C)C)C(C)=CC1OC1C(OC3OC(C(=O)O)C(O)C(O)C3O)C(OC(C)=O)C2(C)C12CO2 (stereo not drawn) [T-2 glucuronide],share of glucuronide form,[4],8%
"C[C@H]1CCC[C@H](O)CCC/C=C/c2cc(O)cc(O)c2C(=O)O1 [α-ZOL, 7-α-hydroxy-zearalenol]",percentage of metabolized parent toxin in phase I reactions,[1],70%
"C[C@H]1CCCC(=O)CCC/C=C/c2cc(O)cc(O)c2C(=O)O1 [ZEN, zearalenone]",percentage of metabolized parent toxin in phase I reactions,[1]; pH 7.4,27%
same,"Number of Metabolites (n): Desaturation oxidation, −(H2) +(O2)",[1]; pH 7.4,0
same,"Number of Metabolites (n): Desaturation, oxidation, −(H2) +(O)",[1]; pH 7.4,1
same,"Number of Metabolites (n): Desaturation, oxidation, −(H4) +(O)",[1]; pH 7.4,0
same,"Number of Metabolites (n): Oxidation, +(O2)",[1]; pH 7.4,0
same,"Number of Metabolites (n): Oxidation, −(H4) +(O2)",[1]; pH 7.4,0
same,"Number of Metabolites (n): Reduction, oxidation, +(H2) +(O)",[1]; pH 7.4,2
same,share of Oxidation +(O) metabolites in ∑ n,[1]; pH 7.4,9(75%)
same,"∑ n, total number of oxidized metabolites",[1]; pH 7.4,12
same,Total Number of Glucuronides,[4],10
same,converted into glucoronides,[4],99%
same,glucuronides of oxidized metabolites and double glucuronides (minor products),[4],8%
same,glucuronides of parent toxins at position C-14,[4],86%
same,"share of species, Figure 7 pie",[4],1%
same,sum of parent glucuronides,[4],91%
same,LC-MS Library: metabolites generated,[2],"Phase I metabolites: (-(H2) +(O))-ZEN, (+(O))-ZEN, (+(H2)+ (O))-ZEN Glucuronides: Gluc-16-ZEN, Gluc-14-ZEN, Gluc-(+O)-ZEN, 2xGluc-ZEN"
